Data on one molecule can be found in ChEMBL document CHEMBL6087448, “Eradication of Therapy-Resistant Cancer Stem Cells by Novel Telmisartan Derivatives” (J Med Chem, 2025).

The assay in a line: Cytotoxicity against human Docetaxel-resistant DU145 cell assessed as metabolic activity at 12.5 nM measured after 72 hrs by MTT assay relative to control. The assay is classed as functional. On the technique in general: Tetrazolium dyes change colour on reduction, which living cells bring about.

For the molecule `CC(=O)O[C@@]12CO[C@@H]1C[C@H](O)[C@@]1(C)C(=O)[C@H](O)C3=C(C)[C@@H](OC(=O)[C@H](O)[C@@H](NC(=O)OC(C)(C)C)c4ccccc4)C[C@@](O)([C@@H](OC(=O)c4ccccc4)[C@H]21)C3(C)C` [DOCETAXEL ANHYDROUS], the Activity is more than 80%.
